Earlier results, collected in patent US10779561B2, “Resveratrol solubility” (AQUANOVA AG, priority 2016, dated 2020).

Key:
NFκ-b = details: in-vitro conditions
rats = details: several in-vivo studies in rats

In the case of `Oc1ccc(C=Cc2cc(O)cc(O)c2)cc1` [resveratrol], the “effect on nuclear translocation of NFκ-b” value (NFκ-b) is listed as “inhibits the nuclear translocation of NFκ-b” and the neuro-protective effect (rats) is listed as “neuro-protective effect”.
